Measured values reported in patent US7297714B2, “Inhibitors of cathepsin S” (IRM LLC, priority 2003, dated 2007).

Legend:
Type in all cases: biochemical
Cathepsin K = biological target: T1, Cathepsin K (Homo sapiens, UniProt P43235); assay: Cathepsin K inhibition assay, selectivity for cathepsin S over cathepsin K; conditions: ratio of cathepsin K inhibition constant to cathepsin S inhibition constant
T1 sequence (P43235 115-329): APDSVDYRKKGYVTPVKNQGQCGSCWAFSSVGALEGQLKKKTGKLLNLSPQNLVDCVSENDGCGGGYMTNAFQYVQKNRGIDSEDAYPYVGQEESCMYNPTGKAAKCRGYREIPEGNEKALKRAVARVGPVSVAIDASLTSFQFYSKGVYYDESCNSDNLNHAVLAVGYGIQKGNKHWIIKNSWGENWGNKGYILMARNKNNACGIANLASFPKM
Experimental: (§1) The optimal substrate for cathepsin K, acetyl-lysine-histidine-proline-lysine-amino carbamoyl coumarin, was identified from screening a combinatorial library of fluorogenic peptide substrates (Harris, J. L., B. J. Backes, et al., Proc Natl Acad Sci USA 2000, 97(14), 7754-9). Kinetic measurements are performed in a total reaction volume of 30 μl in 384-well microtiter plates. Cathepsin K, at a final concentration of 3.5 nM (active site), is incubated with the compounds at twelve varying concentrations in a buffer containing 100 mM NaAc (pH5.5), 1 mM EDTA, 100 mM NaCl, 0.01% Brij-35 for 20 minutes at room temperature. Control reactions in the absence of inhibitor are performed in replicates of 24. The reactions are initiated by adding the substrate, acetyl-lysine-histidine-proline-lysine-amino carbamoyl coumarin, to a final concentration of 40 μM. The rate of substrate hydrolysis is measured by monitoring the increase in fluorescence at an excitation wavelength of 380 nm and an emission wavelength of 450 nm that results from cleavage of the aniline bond in the substrate by the enzyme. The apparent inhibition constants for the compounds are determined from the enzyme progress curves (Kuzmic, P., K. C. Elrod, et al., Anal Biochem 2000, 286(1), 45-50) and are then used to calculate the inhibition constants for competitive inhibitors.
Selectivity for cathepsin S in the presence of cathepsin isozymes was determined by the ratio of the cathepsin isozyme inhibition constant of a compound of the present invention to the cathepsin S inhibition constant of the same compound. Preferred compounds of the present invention selective for cathepsin S have ratios of greater than 10. More preferred compounds of the present invention selective for cathepsin S have ratios of greater than 100. Most preferred compounds of the present invention selective for cathepsin S have ratios of greater than 1000.

Caspase 3 = biological target: T2, Caspase 3 (Homo sapiens, UniProt P42574); assay: Inhibition Assay for Caspase 3; conditions: Caspase-3 inhibition constant; pH7.4; read-out: Ki Cas-3
T2 sequence (P42574 29-175 limits assumed): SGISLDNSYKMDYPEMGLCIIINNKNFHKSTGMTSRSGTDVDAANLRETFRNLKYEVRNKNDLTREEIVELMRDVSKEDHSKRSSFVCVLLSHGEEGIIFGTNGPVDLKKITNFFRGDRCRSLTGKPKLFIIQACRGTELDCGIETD
T2 sequence (P42574 176-277 limits assumed): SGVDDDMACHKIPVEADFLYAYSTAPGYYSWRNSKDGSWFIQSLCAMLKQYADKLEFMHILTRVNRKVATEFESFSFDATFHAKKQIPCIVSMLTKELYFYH
Experimental: The widely used substrate for caspase 3, acetyl-aspartate-glutamate-valine-aspartic acid-amino carbamoyl coumarin, was used. Kinetic measurements are performed in a total reaction volume of 30 μl in 384-well microtiter plates. Caspase 3, at a final concentration of 0.2-1 nM (active site), is incubated with the compounds at twelve varying concentrations in a buffer containing 20 mM Hepes (pH7.4), 1 mM EDTA, 100 mM NaCl, 0.1% CHAPS, 10% sucrose, 10 mM DTT for 20 minutes at room temperature. Control reactions in the absence of inhibitor are performed in replicates of 12. The reactions are initiated by adding the substrate to a final concentration of 2 μM. The rate of substrate hydrolysis is measured by monitoring the increase in fluorescence at an excitation wavelength of 380 nm and an emission wavelength of 450 nm that results from cleavage of the aniline bond in the substrate by the enzyme. The apparent inhibition constants for the compounds are determined from the enzyme progress curves (Kuzmic, Elrod et al. 2000) and are then used to calculate the inhibition constants for competitive inhibitors (Km=9.71 μM).

Cathepsin S = Cathepsin S (Homo sapiens, UniProt P25774); assay: Cathepsin S inhibition assay (fluorogenic peptide substrate); conditions: Cathepsin S inhibition constant; pH5.5; read-out: Ki Cat. S
Sequence of Cathepsin S (P25774 115-331, species assumed): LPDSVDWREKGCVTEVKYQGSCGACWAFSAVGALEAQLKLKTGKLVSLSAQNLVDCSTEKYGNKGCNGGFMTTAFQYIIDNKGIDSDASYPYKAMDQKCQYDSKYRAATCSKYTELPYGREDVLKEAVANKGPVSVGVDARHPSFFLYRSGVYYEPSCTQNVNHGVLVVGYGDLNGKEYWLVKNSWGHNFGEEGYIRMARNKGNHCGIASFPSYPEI
Text: “Inhibition constant”, Ki, is the dissociation constant of the enzyme-inhibitor complex, or the reciprocal of the binding affinity of the inhibitor to the enzyme. For classical inhibition the value of Ki is much greater than the enzyme concentration and the Ki can be measured by monitoring the rate of reaction for a competitive substrate at multiple inhibitor concentrations. The inhibited rates are then fit by nonlinear regression to the following equation: […]
The assumption being made for the classical inhibition described above is that the free inhibitor concentration is equal to the total inhibitor concentration. For inhibitors that have Ki's that are approximately equal to the enzyme concentration [E], the assumption that the free inhibitor concentration is equal to the total inhibitor concentration is no longer valid and an alternative equation has to be fit for determination of the apparent inhibition constant, Ki^app using described methods (Kuzmic, P., K. C. Elrod, et al., Anal Biochem 2000, 286(1), 45-50):
as §1, with “S, acetyl-histidine-proline-valine-lysine-amino” for “K, acetyl-lysine-histidine-proline-lysine-amino”, “U S A” for “USA”, “S,” for “K,”, “0.3-3” for “3.5”, “acetyl-histidine-proline-valine-lysine-amino” for “acetyl-lysine-histidine-proline-lysine-amino”, “50” for “40”

Row | SMILES | Selectivity for Cat. S over Cat. K (Cathepsin K) | Ki (Caspase 3) [nM] | Ki (Cathepsin S) [nM]
1 | O=C1C[C@H](NC(=O)[C@H](CC2CCCC2)NC(=O)c2ccc(-c3cccc(F)c3)o2)C(O)O1 (stereo partly drawn) [Example 1, (3S)-(3-Cyclopentyl-(2S)-{[5-(3-fluoro-phenyl)-furan-2-carbonyl]-amino}-propionylamino)-4-oxo-butyric acid] | + (+, >10) | > 1000 | < 100
2 | O=C1C[C@H](NC(=O)[C@H](CC2CCCC2)NC(=O)N2CCOCC2)C(O)O1 (stereo partly drawn) [Example 2, (3S)-{3-Cyclopentyl-(2S)-[(morpholine-4-carbonyl)-amino]-propionylamino}-4-oxo-butyric acid] | ++ (++, >100) | > 10000 | < 100
3 | O=C1C[C@H](NC(=O)[C@H](CC2CCCCC2)OC(=O)N2CCOCC2)C(O)O1 (stereo partly drawn) [Example 3, (3S)-{3-cyclohexyl-(2S)-(morpholine-4-carbonyloxy)-propionylamino}-4-oxo-butyric acid] | + (+, >10) | > 10000 | < 100
4 | O=C[C@H](CC(=O)O)NC(=O)[C@@H](CC(=O)N1CCOCC1)CC1CCCC1 [Example 4, (3S)-[(2R)-Cyclopentylmethyl-4-morpholin-4-yl-4-oxo-butyrylamino]-4-oxo-butyric acid] | + (+, >10) | > 10000 | < 100
5 | O=C1C[C@H](NC(=O)O[C@@H](CC2CCCC2)Cn2cnc3cc(Cl)c(Cl)cc32)C(O)O1 (stereo partly drawn) [Example 5, (3S)-[(1S)-Cyclopentylmethyl-2-(5,6-dichloro-benzoimidazol-1-yl)-ethoxycarbonylamino]-4-oxo-butyric acid] | + (+, >10) | > 10000 | < 100
6 | O=C1C[C@H](NC(=O)[C@@H](CC(=O)N2CCOCC2)CC2CCCCC2)C(O)O1 (stereo partly drawn) [Example 6, (3S)-{(2R)-Cyclohexylmethyl-4-morpholin-4-yl-4-oxo-butyrylamino}-4-oxo-butyric acid] | ++ (++, >100) | > 10000 | < 100
7 | O=C1C[C@H](NC(=O)[C@H](CC2CCCCC2)NS(=O)(=O)c2cccc(OC(F)(F)F)c2)C(O)O1 (stereo partly drawn) [Example 7, (3S)-[3-Cyclohexyl-(2S)-(3-trifluoromethoxy-benzenesulfonylamino)-propionylamino]-4-oxo-butyric acid] | ++ (++, >100) | > 10000 | < 100
8 | O=C1C[C@H](NC(=O)[C@H](CC2CCCC2)NS(=O)(=O)c2cccc(OC(F)(F)F)c2)C(O)O1 (stereo partly drawn) [Example 8, (3S)-[3-Cyclopentyl-(2S)-(3-trifluoromethoxy-benzenesulfonylamino)-propionylamino]-4-oxo-butyric acid] | ++ (++, >100) | > 1000 | < 100
9 | CC(C)(C)C[C@H](OC(=O)N[C@H]1CC(=O)OC1O)C(=O)N1CCOCC1 (stereo partly drawn) [Example 9, (3S)-[3,3-Dimethyl-(1S)-(morpholine-4-carbonyl)-butoxycarbonylamino]-4-oxo-butyric acid] |  | > 100000 | < 100
10 | O=C1C[C@H](NC(=O)O[C@@H](CC2CCCCC2)C(=O)N2CCOCC2)C(O)O1 (stereo partly drawn) [Example 10, (3S)-[2-cyclohexyl-(1S)-(morpholin-4-carbonyl)-ethoxycarbonylamino]-4-oxo-butyric acid] | ++ (++, >100) | > 100000 | < 100
